Results taken from PubChem BioAssay (NCI).
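Method: 48-hour compound exposure of cells in 96-well plates, five concentrations, linear interpolation of endpoints. GI50: concentration for 50% inhibition of growth. Definition used: TGI = concentration required for complete inhibition of growth.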

Columns and labels:
Assay in all cases: inhibition of tumour cell growth, NCI panel, 48 h
[1] = test system: MDA-MB-231 breast
[2] = test system: EKVX NSCLC
[3] = test system: HOP-62 NSCLC
[4] = test system: HT29 colon
[5] = test system: 786-0 renal
[6] = test system: OVCAR-5 ovarian
[7] = test system: HL-60(TB) leukemia
[8] = test system: KM12 colon
[9] = test system: MDA-N
[10] = test system: NCI-H23 lung
[11] = test system: SNB-75 CNS
[12] = test system: SN12C renal
[13] = test system: NCI-H226 lung
[14] = test system: SF-268 CNS
[15] = test system: HCC-2998 colon
[16] = test system: SW-620 colon

SMILES | TGI [1] [µM] | TGI [2] [µM] | TGI [3] [µM] | TGI [4] [µM] | TGI [5] [µM] | TGI [6] [µM] | TGI [7] [µM] | TGI [8] [µM] | TGI [9] [µM] | TGI [10] [µM] | TGI [11] [µM] | TGI [12] [µM] | TGI [13] [µM] | TGI [14] [µM] | TGI [15] [µM] | TGI [16] [µM] | GI50 [1] [µM] | GI50 [7] [µM] | GI50 [8] [µM] | GI50 [9] [µM]
CCOC(=O)/C=C(\C(=O)OCC)n1cnc2c(N)ncnc21 | 21.8 | 30.7 | 39.8 | 23.1 | 10.2 | 14 | 2.78 | 30.5 | 29.3 | 31.8 | 26 | 10.8 | 13 | 37.6 | 30.2 | 8.49 | – | – | – | –
Cn1c(=O)c2nc3nnc(C#N)c(N)n3c2n(C)c1=O | > 100 | > 100 | > 100 | > 100 | > 100 | > 100 | > 100 | > 100 | > 100 | – | – | > 100 | > 100 | > 100 | > 100 | – | – | – | – | –
COc1ccc(N=Nc2c(C)c(C#N)c(=S)n(C3OC(COC(C)=O)C(OC(C)=O)C(OC(C)=O)C3OC(C)=O)c2-c2ccccc2)cc1 (configuration not stated) | 22.3 | – | 26.5 | > 100 | 10.4 | 30.8 | > 100 | 20.6 | 22.9 | 34.6 | – | 29.9 | – | – | > 100 | 11.1 | – | – | – | –
COc1cc(/C=C/c2sc3ccccc3[n+]2C)ccc1N(C)C | 23.2 | > 100 | 32.8 | 32.4 | 24.8 | 40.5 | 3.88 | 21.7 | 22.2 | 27.7 | – | 25.5 | 50.6 | 33.6 | 53.4 | 25.8 | 11.2 | 1.75 | 10.1 | 7.11
COc1ccc(C(=O)/C=C/c2ccc(OCC(=O)O)cc2)cc1 | > 100 | > 100 | > 100 | > 100 | > 100 | > 100 | > 100 | > 100 | > 100 | > 100 | > 100 | > 100 | – | > 100 | > 100 | > 100 | – | – | – | –
Cc1nn(-c2ccccc2)c2c1C(c1cc3ccccc3nc1Cl)NC(=S)N2 (configuration not stated) | > 100 | > 100 | > 100 | > 100 | > 100 | > 100 | > 100 | > 100 | > 100 | > 100 | > 100 | > 100 | > 100 | > 100 | – | 98.4 | – | – | – | –
O=C(O)c1cncc(C(=O)O)c1 | > 100 | > 100 | > 100 | > 100 | > 100 | > 100 | > 100 | > 100 | > 100 | > 100 | > 100 | > 100 | > 100 | > 100 | – | > 100 | – | – | – | –
c1ccc(SC(Sc2ccccc2)c2ccc3c(c2)OCO3)cc1 | > 100 | > 100 | > 100 | > 100 | > 100 | > 100 | > 100 | > 100 | > 100 | > 100 | – | > 100 | > 100 | > 100 | – | > 100 | – | – | – | –
NC(N)=NS(=O)(=O)c1ccc(Nc2c3ccccc3nc3c(C(=O)NC(CO)(CO)CO)cccc23)cc1 | > 100 | > 100 | 87.4 | 61.1 | 46.2 | 65.4 | 71.4 | 38.5 | > 100 | > 100 | 18.7 | > 100 | – | > 100 | > 100 | > 100 | – | – | – | –
c1ccc(/N=N\Nc2ccc(-c3nc4ccccc4o3)cc2)nc1 | > 100 | 88.2 | > 100 | > 100 | > 100 | > 100 | > 100 | > 100 | > 100 | > 100 | 85.8 | > 100 | – | > 100 | 55.4 | 42.1 | – | – | – | –
Cc1cc(N(CCC#N)CCC#N)ccc1/C(N=Nc1ccccc1)=N\NC(=O)c1ccccc1 | > 100 | > 100 | > 100 | 35.5 | 76.6 | > 100 | > 100 | > 100 | > 100 | > 100 | > 100 | > 100 | > 100 | > 100 | > 100 | – | – | – | – | –
NC1=NN(c2ccccc2)C2(c3ccncc3C(=O)O)C1C(N)=NN2c1ccccc1 (configuration not stated) | > 100 | > 100 | – | > 100 | > 100 | > 100 | > 100 | > 100 | > 100 | > 100 | > 100 | > 100 | > 100 | > 100 | > 100 | > 100 | – | – | – | –
O=c1oc2cccnc2n1CCN1CCN(c2ccc(Oc3ccccc3)cc2)CC1 | > 100 | > 100 | > 100 | > 100 | > 100 | > 100 | 86.4 | – | > 100 | > 100 | > 100 | – | – | > 100 | > 100 | > 100 | – | – | – | –
O=c1c[n+](-c2ccccc2)[nH]o1 | > 100 | > 100 | > 100 | > 100 | > 100 | > 100 | > 100 | > 100 | > 100 | > 100 | > 100 | > 100 | – | > 100 | > 100 | > 100 | – | – | – | –
O=C(N/N=C/C=C/c1ccc([N+](=O)[O-])o1)c1ccc(Br)s1 | 64.9 | 95.9 | > 100 | 34.2 | 47.5 | 59.7 | 87.2 | 40.5 | 56.7 | 33.5 | > 100 | 70.5 | 47.3 | 98.4 | – | 71.6 | – | – | – | –
